Measurements from patent US20260297085A1, “1 H-PYRROLO[2,3-B]PYRIDIN-4-YL]-2-OXOPYRROLIDINE-3-CARBONITRILE DERIVATIVES AS TYROSINE KINASE 2 (TYK2) INHIBITORS FOR THE TREATMENT OF INFLAMMATORY DISEASES” (BIOGEN MA INC., priority 2023, published 2026).
pIC50: −log10 of the molar value. Counter-ions that a name gives are not always drawn.

Legend:
[1] = target: T1, human TYK2 kinase domain (JH1) (Homo sapiens, UniProt P29597); assay: JH1 biochemical assay for TYK2 (ADP-Glo kinase assay, recombinant JH1 catalytic domain, JAK3-974 peptide, 10 μM ATP)
T1 construct: recombinantly generated catalytic kinase (also known as JH1) domain of human JAK1, JAK2, JAK3 and TYK2
T1 sequence (P29597 897-1176 limits assumed): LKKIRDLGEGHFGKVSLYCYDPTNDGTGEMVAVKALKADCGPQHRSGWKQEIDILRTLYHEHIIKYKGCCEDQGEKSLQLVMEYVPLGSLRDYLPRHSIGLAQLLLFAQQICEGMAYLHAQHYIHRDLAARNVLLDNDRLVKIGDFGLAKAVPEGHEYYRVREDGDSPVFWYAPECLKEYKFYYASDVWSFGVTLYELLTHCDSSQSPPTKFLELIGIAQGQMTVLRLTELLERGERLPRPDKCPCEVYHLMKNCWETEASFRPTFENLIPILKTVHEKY
Summary of the method: (§1)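 Kinase 4 nM JAK1 / 0.2 nM JAK2 / 0.3 nM JAK3 / 2 nM TYK2; 50 μM peptide; 100 min. Unused ATP depleted, ADP→ATP, luciferase luminescence. 11-pt 3-fold series from 10 or 1 μM; normalized, 4PL fit → IC50.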

[2] = target: T2, human JAK1 kinase domain (JH1) (Homo sapiens, UniProt P23458); assay: JH1 biochemical assay for JAK1 (ADP-Glo kinase assay, recombinant JH1 catalytic domain, JAK3-342 peptide, 35 μM ATP)
T2 construct: recombinantly generated catalytic kinase (also known as JH1) domain of human JAK1, JAK2, JAK3 and TYK2
Summary of the method: as §1

[3] = target: T3, human JAK2 kinase domain (JH1) (Homo sapiens, UniProt O60674); assay: JH1 biochemical assay for JAK2 (ADP-Glo kinase assay, recombinant JH1 catalytic domain, JAK3-974 peptide, 15 μM ATP)
T3 construct: recombinantly generated catalytic kinase (also known as JH1) domain of human JAK1, JAK2, JAK3 and TYK2
Summary of the method: as §1

[4] = target: T4, human JAK3 kinase domain (JH1) (Homo sapiens, UniProt P52333); assay: JH1 biochemical assay for JAK3 (ADP-Glo kinase assay, recombinant JH1 catalytic domain, JAK3-974 peptide, 4 μM ATP)
T4 construct: recombinantly generated catalytic kinase (also known as JH1) domain of human JAK1, JAK2, JAK3 and TYK2
Summary of the method: as §1

[5] = target: Tyk2 kinase activity on STAT4 in NK92 cells (Homo sapiens, UniProt P29597); assay: pSTAT4 cell assay (MSD; NK92 cells, 30 ng/mL IL2 stimulation); type: cell-based; conditions: 30 ng/mL IL2, 15 minutes
Summary of the method: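 IC50 values come from 4-parameter logistic fits of normalized percent activity. Phospho-STAT was read by MSD (anti-STAT4 antibodies) in NK92 lysates after a 15 min stimulation with 30 ng/mL IL2. The serum-starved cells had been given compound for 1 h (10 points, four-fold, top 10 μM).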

[6] = target: JAK2 kinase activity on STAT5 in TF1 cells (Homo sapiens, UniProt O60674); assay: pSTAT5 cell assay (MSD; TF1 cells, 30 ng/mL IL-3 stimulation); type: cell-based; conditions: 30 ng/mL IL-3, 15 minutes
Summary of the method: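 IC50 from a 4-parameter logistic fit of normalized pSTAT5 signal, measured by MSD in lysates of TF1 cells. Cells were serum-starved, exposed to compound for 1 h (top concentration 10 μM, four-fold, 10 points), then given IL-3 at 30 ng/mL for 15 min.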

[7] = target: JAK1 kinase activity on STAT3 in TF1 cells (Homo sapiens, UniProt P23458); assay: pSTAT3 cell assay (MSD; TF1 cells, 30 ng/mL IL-6 stimulation); type: cell-based; conditions: 30 ng/mL IL-6, 15 minutes
Summary of the method: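 IC50 values derive from 4-parameter logistic fits of normalized pSTAT3 signal, measured by MSD with anti-STAT3 antibodies. TF1 cells, serum-starved beforehand, received compound for 1 hour (top concentration 10 μM, four-fold steps, 10 points) before a 15-minute IL-6 (30 ng/mL) stimulus.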

T4 sequence (P52333 822-1111 limits assumed): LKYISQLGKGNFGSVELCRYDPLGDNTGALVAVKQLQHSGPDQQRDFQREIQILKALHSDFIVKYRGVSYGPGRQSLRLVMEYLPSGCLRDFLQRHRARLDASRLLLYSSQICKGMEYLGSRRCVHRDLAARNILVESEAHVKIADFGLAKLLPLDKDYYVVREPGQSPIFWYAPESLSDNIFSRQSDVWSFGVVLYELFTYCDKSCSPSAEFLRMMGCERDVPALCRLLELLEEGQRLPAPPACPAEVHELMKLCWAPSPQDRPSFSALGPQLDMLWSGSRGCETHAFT
Tyk2 kinase activity on STAT4 in NK92 cells, sequence (P29597 whole entry): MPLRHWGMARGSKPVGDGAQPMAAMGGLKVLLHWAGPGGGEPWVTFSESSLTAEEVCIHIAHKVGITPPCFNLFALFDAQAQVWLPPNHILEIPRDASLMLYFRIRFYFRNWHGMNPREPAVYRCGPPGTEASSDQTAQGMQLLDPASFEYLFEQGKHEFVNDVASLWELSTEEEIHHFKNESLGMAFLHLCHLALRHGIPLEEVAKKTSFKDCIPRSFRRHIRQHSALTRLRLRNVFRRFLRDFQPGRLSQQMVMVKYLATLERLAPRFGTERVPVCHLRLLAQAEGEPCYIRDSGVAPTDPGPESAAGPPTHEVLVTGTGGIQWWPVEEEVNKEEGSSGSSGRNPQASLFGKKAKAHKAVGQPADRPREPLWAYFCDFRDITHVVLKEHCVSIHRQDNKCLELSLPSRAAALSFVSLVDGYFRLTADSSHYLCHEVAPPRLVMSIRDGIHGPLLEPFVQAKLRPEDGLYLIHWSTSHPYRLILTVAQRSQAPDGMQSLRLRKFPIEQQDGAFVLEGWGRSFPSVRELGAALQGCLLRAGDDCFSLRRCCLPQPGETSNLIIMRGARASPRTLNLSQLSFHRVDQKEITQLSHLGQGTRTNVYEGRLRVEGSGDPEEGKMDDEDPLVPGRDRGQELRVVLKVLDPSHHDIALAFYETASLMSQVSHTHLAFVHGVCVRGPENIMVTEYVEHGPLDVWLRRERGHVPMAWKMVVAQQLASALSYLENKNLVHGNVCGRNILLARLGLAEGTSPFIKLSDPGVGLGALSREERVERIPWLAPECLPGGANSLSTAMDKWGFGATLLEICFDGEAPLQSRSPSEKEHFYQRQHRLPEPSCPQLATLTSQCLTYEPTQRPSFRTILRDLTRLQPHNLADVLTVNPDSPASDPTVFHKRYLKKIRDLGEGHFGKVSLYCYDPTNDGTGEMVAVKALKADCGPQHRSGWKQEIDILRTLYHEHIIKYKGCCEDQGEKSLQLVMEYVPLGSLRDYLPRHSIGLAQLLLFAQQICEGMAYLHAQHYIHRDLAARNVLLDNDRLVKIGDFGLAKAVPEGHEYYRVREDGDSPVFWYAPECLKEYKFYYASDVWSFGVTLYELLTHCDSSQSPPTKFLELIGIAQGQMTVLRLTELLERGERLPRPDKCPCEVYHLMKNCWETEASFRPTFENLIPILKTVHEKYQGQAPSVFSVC
T2 sequence (P23458 875-1153 limits assumed): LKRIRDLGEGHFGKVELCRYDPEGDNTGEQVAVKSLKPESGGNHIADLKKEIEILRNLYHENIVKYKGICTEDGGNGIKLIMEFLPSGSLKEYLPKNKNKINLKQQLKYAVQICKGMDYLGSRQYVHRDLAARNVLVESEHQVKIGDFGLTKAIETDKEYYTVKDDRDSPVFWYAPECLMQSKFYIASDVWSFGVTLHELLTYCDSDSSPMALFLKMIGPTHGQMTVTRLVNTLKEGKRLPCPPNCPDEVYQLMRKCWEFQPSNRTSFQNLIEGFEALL
JAK2 kinase activity on STAT5 in TF1 cells, sequence (O60674 whole entry): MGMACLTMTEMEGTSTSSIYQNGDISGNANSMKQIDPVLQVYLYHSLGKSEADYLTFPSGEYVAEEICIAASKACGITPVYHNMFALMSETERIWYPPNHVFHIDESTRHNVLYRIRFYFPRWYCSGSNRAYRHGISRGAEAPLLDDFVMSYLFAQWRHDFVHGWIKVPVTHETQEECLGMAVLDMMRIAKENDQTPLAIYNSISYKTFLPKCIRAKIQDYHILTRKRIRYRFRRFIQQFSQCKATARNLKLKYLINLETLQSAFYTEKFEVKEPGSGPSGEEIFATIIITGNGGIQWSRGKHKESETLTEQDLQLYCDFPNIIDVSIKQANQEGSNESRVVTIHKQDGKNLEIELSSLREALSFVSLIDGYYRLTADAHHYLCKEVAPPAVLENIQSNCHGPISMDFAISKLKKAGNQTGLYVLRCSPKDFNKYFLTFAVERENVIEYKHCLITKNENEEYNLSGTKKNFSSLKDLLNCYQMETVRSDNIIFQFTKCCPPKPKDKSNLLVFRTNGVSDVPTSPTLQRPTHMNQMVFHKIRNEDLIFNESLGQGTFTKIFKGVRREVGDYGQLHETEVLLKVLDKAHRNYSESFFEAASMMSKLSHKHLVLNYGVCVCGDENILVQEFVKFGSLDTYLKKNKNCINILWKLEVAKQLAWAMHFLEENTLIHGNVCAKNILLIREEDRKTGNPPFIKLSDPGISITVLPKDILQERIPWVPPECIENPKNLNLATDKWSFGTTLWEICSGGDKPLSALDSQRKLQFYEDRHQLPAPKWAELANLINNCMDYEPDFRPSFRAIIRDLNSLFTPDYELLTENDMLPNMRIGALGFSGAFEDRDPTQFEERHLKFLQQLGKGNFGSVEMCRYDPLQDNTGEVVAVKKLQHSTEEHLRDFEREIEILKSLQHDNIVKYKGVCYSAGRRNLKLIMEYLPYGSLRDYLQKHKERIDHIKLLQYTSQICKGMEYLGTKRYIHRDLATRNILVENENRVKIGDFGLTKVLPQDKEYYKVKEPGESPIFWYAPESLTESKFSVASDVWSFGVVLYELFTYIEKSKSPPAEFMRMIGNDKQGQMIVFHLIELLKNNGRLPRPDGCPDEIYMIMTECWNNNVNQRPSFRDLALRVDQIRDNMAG
T3 sequence (O60674 849-1124 limits assumed): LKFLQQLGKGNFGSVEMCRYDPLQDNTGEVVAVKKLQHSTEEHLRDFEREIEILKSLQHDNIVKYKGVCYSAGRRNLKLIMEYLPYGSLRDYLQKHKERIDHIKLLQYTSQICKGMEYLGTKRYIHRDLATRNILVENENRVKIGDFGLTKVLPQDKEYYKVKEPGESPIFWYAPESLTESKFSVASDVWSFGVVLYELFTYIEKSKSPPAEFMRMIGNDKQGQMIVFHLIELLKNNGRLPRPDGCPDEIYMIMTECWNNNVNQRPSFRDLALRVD
JAK1 kinase activity on STAT3 in TF1 cells, sequence (P23458 whole entry): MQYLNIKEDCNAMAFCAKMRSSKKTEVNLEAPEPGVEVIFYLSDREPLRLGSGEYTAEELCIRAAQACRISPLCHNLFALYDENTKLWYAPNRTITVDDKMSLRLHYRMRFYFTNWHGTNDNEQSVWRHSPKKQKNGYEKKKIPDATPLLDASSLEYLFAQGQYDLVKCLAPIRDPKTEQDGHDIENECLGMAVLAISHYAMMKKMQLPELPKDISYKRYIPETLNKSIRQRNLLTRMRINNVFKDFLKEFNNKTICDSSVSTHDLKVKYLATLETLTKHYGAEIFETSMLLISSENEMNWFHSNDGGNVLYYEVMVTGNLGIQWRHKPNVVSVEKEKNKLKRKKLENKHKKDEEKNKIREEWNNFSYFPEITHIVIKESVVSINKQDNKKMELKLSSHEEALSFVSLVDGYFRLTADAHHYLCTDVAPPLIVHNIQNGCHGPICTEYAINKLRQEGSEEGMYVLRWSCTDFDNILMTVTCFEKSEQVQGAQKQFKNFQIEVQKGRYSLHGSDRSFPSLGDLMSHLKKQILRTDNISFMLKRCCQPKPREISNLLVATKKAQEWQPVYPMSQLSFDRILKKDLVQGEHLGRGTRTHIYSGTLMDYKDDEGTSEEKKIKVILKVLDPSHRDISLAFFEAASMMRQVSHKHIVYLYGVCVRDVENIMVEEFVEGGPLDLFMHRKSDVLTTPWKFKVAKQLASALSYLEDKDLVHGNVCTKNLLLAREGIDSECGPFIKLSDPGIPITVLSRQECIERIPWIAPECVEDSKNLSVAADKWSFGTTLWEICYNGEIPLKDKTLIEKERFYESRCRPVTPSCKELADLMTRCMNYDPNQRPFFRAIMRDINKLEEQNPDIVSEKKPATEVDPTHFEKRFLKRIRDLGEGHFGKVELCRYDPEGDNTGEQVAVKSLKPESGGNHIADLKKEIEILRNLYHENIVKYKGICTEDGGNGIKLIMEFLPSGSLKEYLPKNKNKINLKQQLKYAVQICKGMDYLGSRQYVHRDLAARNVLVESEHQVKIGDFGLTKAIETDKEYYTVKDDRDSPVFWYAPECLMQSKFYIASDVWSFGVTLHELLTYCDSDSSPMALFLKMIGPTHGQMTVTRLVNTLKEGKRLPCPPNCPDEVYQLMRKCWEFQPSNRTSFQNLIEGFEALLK

| pIC50 ([1]; JH1 kinase domain, ADP-Glo) | pIC50 ([2]; JH1 kinase domain, ADP-Glo) | pIC50 ([3]; JH1 kinase domain, ADP-Glo) | pIC50 ([4]; JH1 kinase domain, ADP-Glo) | pIC50 [5] | pIC50 [6] | pIC50 [7] | pIC50 ([1]; TYK2 JH1, ADP-Glo) | pIC50 ([2]; JAK1 JH1, ADP-Glo) | pIC50 ([3]; JAK2 JH1, ADP-Glo) | pIC50 ([4]; JAK3 JH1, ADP-Glo) | Compound |
| --- | --- | --- | --- | --- | --- | --- | --- | --- | --- | --- | --- |
| 7.70 to 8.30 | 6.00 to 7.00 | 6.00 to 7.00 | 6.00 to 7.00 | < 7.00 | 5.30 to 6.00 | 5.30 to 6.00 | – | – | – | – | COc1cc(-c2cc3c(N4CC[C@@](C#N)(C5CC5)C4=O)ccnn3c2)ccn1 [Example 8, (S)-3-cyclopropyl-1-(6-(2-methoxypyridin-4-yl)pyrrolo[1,2-b]pyridazin-4-yl)-2-oxopyrrolidine-3-carbonitrile] |
| 7.70 to 8.30 | 6.00 to 7.00 | 6.00 to 7.00 | 6.00 to 7.00 | < 7.00 | < 5.00 | 5.30 to 6.00 | – | – | – | – | N#C[C@@]1(C2CC2)CCN(c2ccnn3cc(-c4cnn(C(F)F)c4)cc23)C1=O [Example 10, (S)-3-cyclopropyl-1-(6-(1-(difluoromethyl)-1H-pyrazol-4-yl)pyrrolo[1,2-b]pyridazin-4-yl)-2-oxopyrrolidine-3-carbonitrile] |
| – | – | – | – | 7.30 to 7.70 | > 7.00 | 6.00 to 7.00 | > 8.30 | > 7.00 | > 7.00 | > 7.00 | C[C@@H]1CN(c2nc(-c3cnn(C4CC(C#N)C4)c3)cc3ncsc23)C(=O)[C@]1(C#N)C1CC1 (stereo partly drawn) [Example 356, (3R,4S)-1-(6-(1-(3-cyanocyclobutyl)-1H-pyrazol-4-yl)thiazolo[5,4-c]pyridin-4-yl)-3-cyclopropyl-4-methyl-2-oxopyrrolidine-3-carbonitrile] |
| – | – | – | – | 7.30 to 7.70 | > 7.00 | > 7.00 | > 8.30 | > 7.00 | > 7.00 | > 7.00 | CO[C@H]1C[C@H](n2cc(-c3cc4ncsc4c(N4C[C@@H](C)[C@@](C#N)(C5CC5)C4=O)n3)cn2)C1 [Example 355, (3R,4S)-3-cyclopropyl-1-(6-(1-((1r,3R)-3-methoxycyclobutyl)-1H-pyrazol-4-yl)thiazolo[5,4-c]pyridin-4-yl)-4-methyl-2-oxopyrrolidine-3-carbonitrile] |
| – | – | – | – | 7.30 to 7.70 | 6.00 to 7.00 | 6.00 to 7.00 | > 8.30 | > 7.00 | > 7.00 | > 7.00 | C[C@@H]1CN(c2nc(-c3cnn(C4COC4)c3)cn3nccc23)C(=O)[C@]1(C#N)C1CC1 [Example 251, (3R,4S)-3-cyclopropyl-4-methyl-1-(6-(1-(oxetan-3-yl)-1H-pyrazol-4-yl)pyrazolo[1,5-a]pyrazin-4-yl)-2-oxopyrrolidine-3-carbonitrile] |
| – | – | – | – | < 7.00 | 5.30 to 6.00 | 5.30 to 6.00 | > 8.30 | 6.00 to 7.00 | 6.00 to 7.00 | > 7.00 | C[C@@H]1CN(c2nc(-c3cnn(CC#N)c3)cn3ncc(F)c23)C(=O)[C@]1(C#N)C1CC1 [Example 220, (3R,4S)-1-(6-(1-(cyanomethyl)-1H-pyrazol-4-yl)-3-fluoropyrazolo[1,5-a]pyrazin-4-yl)-3-cyclopropyl-4-methyl-2-oxopyrrolidine-3-carbonitrile] |
| – | – | – | – | 7.00 to 7.30 | 5.30 to 6.00 | 6.00 to 7.00 | > 8.30 | > 7.00 | > 7.00 | > 7.00 | C[C@@H]1CN(c2nc(-c3cnn(CC4COC4)c3)cn3ncc(F)c23)C(=O)[C@]1(C#N)C1CC1 [Example 304, (3R,4S)-3-cyclopropyl-1-(3-fluoro-6-(1-(oxetan-3-ylmethyl)-1H-pyrazol-4-yl)pyrazolo[1,5-a]pyrazin-4-yl)-4-methyl-2-oxopyrrolidine-3-carbonitrile] |
| > 8.30 | > 7.00 | > 7.00 | > 7.00 | 7.30 to 7.70 | 5.30 to 6.00 | 5.30 to 6.00 | – | – | – | – | C[C@@H]1CN(c2ccnn3cc(-c4cnn(C5CCOC5)c4)cc23)C(=O)[C@]1(C#N)C1CC1 (stereo partly drawn) [Example 162, (3R,4S)-3-cyclopropyl-4-methyl-2-oxo-1-(6-(1-(tetrahydrofuran-3-yl)-1H-pyrazol-4-yl)pyrrolo[1,2-b]pyridazin-4-yl)pyrrolidine-3-carbonitrile] |
| – | – | – | – | < 7.00 | 5.30 to 6.00 | 6.00 to 7.00 | > 8.30 | > 7.00 | 6.00 to 7.00 | > 7.00 | C[C@@H]1CN(c2cc(-c3cnn(C(F)F)c3)cc3ncsc23)C(=O)[C@]1(C#N)C1CC1 [Example 349, (3R,4S)-3-cyclopropyl-1-(5-(1-(difluoromethyl)-1H-pyrazol-4-yl)benzo[d]thiazol-7-yl)-4-methyl-2-oxopyrrolidine-3-carbonitrile] |
| – | – | – | – | 7.30 to 7.70 | 6.00 to 7.00 | 6.00 to 7.00 | > 8.30 | > 7.00 | > 7.00 | > 7.00 | C[C@@H]1CN(c2nc(-c3cnn(C4CC(F)(F)C4)c3)cn3nccc23)C(=O)[C@]1(C#N)C1CC1 [Example 290, (3R,4S)-3-cyclopropyl-1-(6-(1-(3,3-difluorocyclobutyl)-1H-pyrazol-4-yl)pyrazolo[1,5-a]pyrazin-4-yl)-4-methyl-2-oxopyrrolidine-3-carbonitrile] |
| – | – | – | – | < 7.00 | 5.30 to 6.00 | 5.30 to 6.00 | > 8.30 | 6.00 to 7.00 | 6.00 to 7.00 | > 7.00 | C[C@@H]1CN(c2nc(-c3ccn(C)c(=O)c3)cn3nccc23)C(=O)[C@]1(C#N)C1CC1 [Example 261, (3R,4S)-3-cyclopropyl-4-methyl-1-(6-(1-methyl-2-oxo-1,2-dihydropyridin-4-yl)pyrazolo[1,5-a]pyrazin-4-yl)-2-oxopyrrolidine-3-carbonitrile trifluoroacetate] |
| – | – | – | – | < 7.00 | 5.30 to 6.00 | 5.30 to 6.00 | > 8.30 | > 7.00 | > 7.00 | > 7.00 | C[C@@H]1CN(c2nc(-c3cnn(C45CC(C#N)(C4)C5)c3)cn3ncc(F)c23)C(=O)[C@]1(C#N)C1CC1 [Example 297, (3R,4S)-1-(6-(1-(3-cyanobicyclo[1.1.1]pentan-1-yl)-1H-pyrazol-4-yl)-3-fluoropyrazolo[1,5-a]pyrazin-4-yl)-3-cyclopropyl-4-methyl-2-oxopyrrolidine-3-carbonitrile] |
| – | – | – | – | < 7.00 | < 5.00 | 5.30 to 6.00 | 7.70 to 8.30 | > 7.00 | 6.00 to 7.00 | 6.00 to 7.00 | C[C@@H]1CN(c2nc(-c3cc[nH]n3)cn3nccc23)C(=O)[C@]1(C#N)C1CC1 [Example 232, (3R,4S)-1-(6-(1H-pyrazol-3-yl)pyrazolo[1,5-a]pyrazin-4-yl)-3-cyclopropyl-4-methyl-2-oxopyrrolidine-3-carbonitrile trifluoroacetate] |
| 7.70 to 8.30 | 6.00 to 7.00 | 6.00 to 7.00 | 6.00 to 7.00 | < 7.00 | < 5.00 | 5.00 to 5.30 | – | – | – | – | CC(=O)Nc1cncc(-c2cc3c(N4C[C@@H](C)[C@@](C#N)(C5CC5)C4=O)ccnn3c2)c1 [Example 90, N-(5-(4-((3R,4S)-3-cyano-3-cyclopropyl-4-methyl-2-oxopyrrolidin-1-yl)pyrrolo[1,2-b]pyridazin-6-yl)pyridin-3-yl)acetamide] |
| – | – | – | – | 7.00 to 7.30 | 5.30 to 6.00 | 6.00 to 7.00 | > 8.30 | > 7.00 | > 7.00 | > 7.00 | C[C@@H]1CN(c2nc(-c3cnn([C@H]4C[C@@](C)(C#N)C4)c3)cn3ncc(F)c23)C(=O)[C@]1(C#N)C1CC1 [Example 307, (3R,4S)-1-(6-(1-((1s,3S)-3-cyano-3-methylcyclobutyl)-1H-pyrazol-4-yl)-3-fluoropyrazolo[1,5-a]pyrazin-4-yl)-3-cyclopropyl-4-methyl-2-oxopyrrolidine-3-carbonitrile] |
